Measurements taken from US8648103B2, “Nitrogen-containing aromatic heterocyclyl compound” (Daiichi Sankyo Company, Limited, priority 2008, dated 2014).

These compounds were tested on Human subcutaneous adipocytes (assay: Adipocyte lipolysis assay (suppression of isoproterenol-stimulated fatty acid release)). Conditions: Homo sapiens, Adipocyte; test compound concentration giving 50% fatty acid concentration reduction percentage in culture supernatant; 1 μM isoproterenol, 5 hours incubation; reduction by 100 μM nicotinic acid set at 100%.
Assay type: cell-based
Description: The suppressive or promoting activity of a test compound on the lipolysis of neutral fat can be assayed according to an adipocyte lipolysis assay as a cell line assay. If a beta adrenoceptor is stimulated with isoproterenol or the like in adipocytes, lipolysis action in which neutral fat accumulated in the cells is decomposed into fatty acid and glycerol can be promoted, and as a result, the amount of such fatty acid or glycerol released out of the cells can be increased. When a test compound that suppresses lipolysis is added to adipocytes, lipolysis-promoting action by isoproterenol stimulation is reduced, and the concentration of fatty acid or glycerol in a medium is decreased. Accordingly, the suppressive activity of a test compound on lipolysis can be assayed by measuring the reduction percentage of the fatty acid concentration or glycerol concentration in a culture supernatant. Likewise, the promoting activity of a test compound on lipolysis can be assayed by measuring the increase percentage of the fatty acid concentration or glycerol concentration in a medium.
• (1) Human subcutaneous adipocytes disseminated onto a 96 well (Dainippon Sumitomo Pharma Co., Ltd.: F-SA-1096) • (2) Adipocyte Maintenance Medium (Dainippon Sumitomo Pharma Co., Ltd.: AM 1) • (3) Lipolysis assay buffer [137 mM NaCl, 5 mM KCl, 4.2 mM NaHCO3, 1.3 mM CaCl2, 0.5 mM KH2PO4, 0.5 mM MgCl2, 0.5 mM MgSO4, 5 mM Glucose, 20 mM Hepes (pH 7.4), 1% BSA, 1 μM Isoproterenol] • (4) NEFA-C Test Wako (Wako Pure Chemical Industries, Ltd.) Preparation of Screening Materials
In this operation, the actual concentration of the test compound in the buffer was 1/1000 of the above-described concentration.
The above-described subcutaneous adipocytes were cultured in 200 μL of an Adipocyte Maintenance Medium in each well for 7 days. During this culturing operation, the medium was exchanged with a fresh one every 3 days. The medium was exchanged by discarding 100 μL of the medium in each well and then adding 100 μL of a fresh Adipocyte Maintenance Medium to the well. Thereafter, the adipocytes were washed with a Lipolysis assay buffer. Subsequently, 50 μL of a Lipolysis assay buffer that contained the above-described test compound was added to each well, and it was then incubated for 5 hours. In order to obtain the measurement value of the test compound in each concentration, 5 wells on a 96-well plate were used with respect to each concentration. As a positive control of a compound having lipolysis suppressive activity, nicotinic acid was used with reference to a previous report [Green A et. al., J. Biol. Chem., 1992, 267(5), 3223-9].
40 μL of a culture supernatant was extracted from each well, and the fatty acid concentration in the supernatant was then measured. Such fatty acid concentration was measured as follows, using the above-described NEFA-C Test Wako. 80 μL of liquid A included in the kit was added to 40 μL of the culture supernatant extracted from each well, and the obtained mixture was then incubated at 37° C. for 10 minutes. Thereafter, 160 μL of liquid B was added, and the obtained mixture was further incubated at 37° C. for 10 minutes. Thereafter, the absorbance at a wavelength of 550 nm was measured. At the same time, a standard fatty acid solution included in the kit was diluted to prepare a dilution series having a volume of 40 μL. According to the same operations as described above, liquid A and liquid B were added, and the absorbance was then measured. In accordance with instructions included with the kit, a calibration curve was prepared. Based on the thus prepared calibration curve, the fatty acid concentration in the culture supernatant was calculated. The reduction percentage of the fatty acid concentration was calculated with the following formula, setting the reduction percentage obtained by addition of 100 μM (final concentration) of nicotinic acid at 100%. […]

Question: Which IC50 does the source give for Cn1cc(NC(=O)CCc2cnc(-c3ccc(O)cc3)o2)c(C(=O)O)c1 [Example 4, 4-{3-[2-(4-Hydroxyphenyl)oxazol-5-yl]propanoyl}amino-1-methylpyrrole-3-carboxylic acid] here?
Answer: Its IC50 is 232 nM.

Question: How did the IC50 turn out when Cn1cc(NC(=O)CCc2cnc(-c3ccc(O)cc3)s2)c(C(=O)O)c1 [Example 6, 4-{3-[2-(4-Hydroxyphenyl)thiazol-5-yl]propanoyl}amino-1-methylpyrrole-3-carboxylic acid] was run?
Answer: Its IC50 is 24 nM.

Question: CCn1cc(NC(=O)CCc2onc(-c3ccc(O)cc3)c2C(F)F)c(C(=O)O)c1 [Example 65, 4-{3-[4-Difluoromethyl-3-(4-hydroxyphenyl)isoxazol-5-yl]propanoyl}amino-1-ethylpyrrole-3-carboxylic acid] was tested. Which IC50 did it give?
Answer: Its IC50 is 18 nM.

Question: For Cn1cc(NC(=O)CCc2sc(-c3ccccc3)nc2Cl)c(C(=O)O)c1 [Example 7, 4-[3-(4-Chloro-2-phenylthiazol-5-yl)propanoyl]amino-1-methylpyrrole-3-carboxylic acid], which IC50 is on record?
Answer: The IC50 was 1500 nM.

Question: For CCn1cc(NC(=O)CCc2onc(-c3ccc(O)cc3)c2C)c(C(=O)O)c1 [Example 38, 4-{3-[(4-Hydroxyphenyl)-4-methylisoxazol-5-yl]propanoyl}amino-1-ethylpyrrole-3-carboxylic acid], which IC50 is on record?
Answer: Its IC50 is 4 nM.

Question: With Cn1cc(NC(=O)CCc2cnc(-c3ccc(O)c(Cl)c3)s2)c(C(=O)O)c1 [Example 10, 4-{3-[2-(3-Chloro-4-hydroxyphenyl)thiazol-5-yl]propanoyl}amino-1-methylpyrrole-3-carboxylic acid] as the compound, how does the IC50 read?
Answer: The IC50 was 151 nM.

Question: Cn1cc(NC(=O)CCc2sc(-c3ccc(O)cc3)nc2Cl)c(C(=O)O)c1 [Example 8, 4-{3-[4-Chloro-2-(4-hydroxyphenyl)thiazol-5-yl]propanoyl}amino-1-methylpyrrole-3-carboxylic acid] was tested. Which IC50 did it give?
Answer: Its IC50 is 76 nM.

Question: How did the IC50 turn out when CCn1cc(NC(=O)CCc2noc(-c3ccc(O)cc3)c2Cl)c(C(=O)O)c1 [Example 34, 4-{3-[5-(4-Hydroxyphenyl)-4-chloroisoxazol-3-yl]propanoyl}amino-1-ethylpyrrole-3-carboxylic acid] was run?
Answer: The IC50 was 20 nM.

Question: For CCc1c(-c2ccc(O)cn2)noc1CC(F)(F)C(=O)Nc1cn(CC)cc1C(=O)O [Example 66, 4-{3-[4-Ethyl-3-(5-hydroxypyridin-2-yl)isoxazol-5-yl]-2,2-difluoropropanoyl}amino-1-ethylpyrrole-3-carboxylic acid], which IC50 is on record?
Answer: Its IC50 is 10 nM.

Question: With CCn1cc(NC(=O)CCn2cnc(-c3ccccc3)c2C)c(C(=O)O)c1 [Example 24, 4-{3-(4-Phenyl-5-methylimidazol-1-yl)propanoyl}amino-1-ethylpyrrole-3-carboxylic acid] as the compound, how does the IC50 read?
Answer: Its IC50 is 20 nM.

Question: CCn1cc(NC(=O)CCc2snc(-c3ccc(O)cc3)c2Cl)c(C(=O)O)c1 [Example 57, 4-{3-[4-Chloro-3-(4-hydroxyphenyl)isothiazol-5-yl]propanoylamino}-1-ethylpyrrole-3-carboxylic acid] was tested. Which IC50 did it give?
Answer: Its IC50 is 161 nM.

Question: With CCn1cc(NC(=O)CCc2onc(-c3ccc(O)cc3)c2Cl)c(C(=O)O)c1 [Example 33, 4-{3-[4-Chloro-(4-hydroxyphenyl)isoxazol-5-yl]propanoyl}amino-1-ethylpyrrole-3-carboxylic acid] as the compound, how does the IC50 read?
Answer: Its IC50 is 7 nM.

Question: With CCn1cc(NC(=O)C(F)Cc2sc(-c3ccc(O)cc3)nc2Cl)c(C(=O)O)c1 (stereo not shown) [Example 37, 4-{3-[4-Chloro-2-(4-hydroxyphenyl)thiazol-5-yl]-2-fluoropropanoyl}amino-1-ethylpyrrole-3-carboxylic acid] as the compound, how does the IC50 read?
Answer: Its IC50 is 13 nM.

Question: With O=C(CCc1nc(-c2ccc(O)cc2)no1)Nc1cn(Cc2cc(F)cc(F)c2)cc1C(=O)O [Example 16, 4-{3-[(4-Hydroxyphenyl)-1,2,4-oxadiazol-5-yl]propanoyl}amino-1-(3,5-difluorobenzyl)pyrrole-3-carboxylic acid] as the compound, how does the IC50 read?
Answer: The IC50 was 29 nM.

Question: With CCn1cc(NC(=O)CCc2sc(-c3ccc(O)cc3O)nc2Cl)c(C(=O)O)c1 [Example 21, 4-{3-[4-Chloro-2-(2,4-dihydroxyphenyl)thiazol-5-yl]propanoyl}amino-1-ethylpyrrole-3-carboxylic acid] as the compound, how does the IC50 read?
Answer: Its IC50 is 41 nM.

Question: CCn1cc(NC(=O)C(F)Cc2cnn(-c3ccccc3)c2C2CC2)c(C(=O)O)c1 (stereo not shown) [Example 30] was tested. Which IC50 did it give?
Answer: Its IC50 is 42 nM.

Question: Which IC50 does the source give for CCn1cc(NC(=O)CCc2noc(-c3ccc(O)cc3)c2C(F)(F)F)c(C(=O)O)c1 [Example 53, 4-{3-[4-Trifluoromethyl-5-(4-hydroxyphenyl)isoxazol-3-yl]propanoyl}amino-1-ethylpyrrole-3-carboxylic acid] here?
Answer: The IC50 was 138 nM.

Question: How did the IC50 turn out when CCn1cc(NC(=O)C(F)(F)Cc2cc(-c3ccc(O)cc3)on2)c(C(=O)O)c1 [Example 64, 4-{3-[5-(4-Hydroxyphenyl)isoxazol-3-yl]-2,2-difluoropropanoyl}amino-1-ethylpyrrole-3-carboxylic acid] was run?
Answer: The IC50 was 29 nM.

Question: How did the IC50 turn out when CCCCn1cc(C(=O)O)c(NC(=O)CCc2nc(-c3ccc(O)cc3)no2)c1C#N [Example 51, 4-{3-[3-(4-Hydroxyphenyl)-1,2,4-oxadiazol-5-yl]propanoyl}amino-5-cyano-1-butylpyrrole-3-carboxylic acid] was run?
Answer: Its IC50 is 264 nM.

Question: For CCCCn1cc(NC(=O)CCc2cc(-c3ccc(O)cc3)no2)c(C(=O)O)c1 [Example 47, 4-{3-[3-(4-Hydroxyphenyl)isoxazol-5-yl]propanoyl}amino-1-butylpyrrole-3-carboxylic acid], which IC50 is on record?
Answer: The IC50 was 8 nM.

Question: CCn1cc(NC(=O)CCc2cnc(-c3ccc(O)cc3C)s2)c(C(=O)O)c1 [Example 19, 4-{3-[2-(4-Hydroxy-2-methylphenyl)thiazol-5-yl]propanoyl}amino-1-ethylpyrrole-3-carboxylic acid] was tested. Which IC50 did it give?
Answer: The IC50 was 93 nM.

Question: Which IC50 does the source give for CCn1cc(NC(=O)C(F)(F)Cc2cnc(-c3ccc(O)cc3)s2)c(C(=O)O)c1 [Example 39, 4-{3-[2-(4-Hydroxyphenyl)thiazol-5-yl]-2,2-difluoropropanoyl}amino-1-ethylpyrrole-3-carboxylic acid] here?
Answer: Its IC50 is 40 nM.

Question: With CCc1c(-c2ccc(O)cc2F)noc1CCC(=O)Nc1cn(CC)cc1C(=O)O [Example 45, 4-{3-[4-Ethyl-3-(4-hydroxy-2-fluorophenyl)isoxazol-5-yl]propanoyl}amino-1-ethylpyrrole-3-carboxylic acid] as the compound, how does the IC50 read?
Answer: Its IC50 is 9 nM.

Question: How did the IC50 turn out when CCn1cc(NC(=O)CCc2cc(-c3ccc(O)cc3)no2)c(C(=O)O)c1 [Example 44, 4-{3-[3-(4-Hydroxyphenyl)isoxazol-5-yl]propanoyl}amino-1-ethylpyrrole-3-carboxylic acid] was run?
Answer: Its IC50 is 8 nM.

Question: With Cn1cc(NC(=O)CCc2cnc(-c3ccc(O)c(F)c3)s2)c(C(=O)O)c1 [Example 9, 4-{3-[2-(4-Hydroxy-3-fluorophenyl)thiazol-5-yl]propanoyl}amino-1-methylpyrrole-3-carboxylic acid] as the compound, how does the IC50 read?
Answer: Its IC50 is 125 nM.

Question: Which IC50 does the source give for CC(C)n1cc(NC(=O)CCc2nc(-c3ccc(O)cn3)no2)c(C(=O)O)c1 [Example 48, 4-{3-[3-(5-Hydroxypyridin-2-yl)-1,2,4-oxadiazol-5-yl]propanoyl}amino-1-isopropylpyrrole-3-carboxylic acid] here?
Answer: The IC50 was 1000 nM.

Question: CCn1cc(NC(=O)CCc2cnn(-c3ccc(O)cc3)c2C(C)C)c(C(=O)O)c1 [Example 56, 4-{3-[1-(4-Hydroxyphenyl)-5-isopropylpyrazol-4-yl]propanoylamino}-1-ethylpyrrole-3-carboxylic acid] was tested. Which IC50 did it give?
Answer: The IC50 was 101 nM.

Same assay, conditions: test compound concentration giving 50% fatty acid concentration reduction percentage in culture supernatant; 1 μM isoproterenol, 5 hours incubation; reduction by 100 μM nicotinic acid set at 100%

Question: How did the IC50 turn out when CCn1cc(NC(=O)C(F)Cc2cnc(-c3ccc(O)cc3)s2)c(C(=O)O)c1 (single isomer, unassigned; (+)) [Example 23b, (+)-4-{3-[2-(4-Hydroxyphenyl)thiazol-5-yl]-2-fluoropropanoyl}amino-1-ethylpyrrole-3-carboxylic acid] was run?
Answer: The IC50 was 103 nM.
